As usually defined, the EC50 is the concentration needed to bring the measured effect to its halfway point.

The text below walks through data of US7807676B2, “Diketo-Piperazine and Piperidine derivatives as antiviral agents” (priority 2006, dated 2010).

The subject of the test is HIV-1 single-round infectious reporter virus. The test can be described thus: Single-round infectious HIV-1 luciferase reporter virus infection of HeLa CD4 cells (antiviral EC50). In kind it is cell-based. Particulars: Human immunodeficiency virus 1, HeLa, read-out: EC50 Group from Table 3. The method in brief: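 Env-pseudotyped single-round HIV-1 reporter virus (env-deleted provirus with luciferase in place of nef, made in 293 cells) infected HeLa CD4 cells at MOI ~0.01 with compound present, up to 10 μM final. Luciferase luminescence read after 72 h at 37 °C; EC50 from four-parameter logistic fit of % inhibition over 10 concentrations.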
In general terms: A reporter such as luciferase makes a cellular process visible.

Consider `COc1cnc(-n2cnc(C)n2)c2[nH]cc(C(=O)C(=O)N3CCN(c4cn(CC#N)nc4-c4ccccc4)CC3)c12` [G-21], for which the EC50 is less than 500 nM.

As for `O=C(C(=O)N1CCN(c2cnnn2-c2ccccn2)CC1)c1c[nH]c2c(-n3ccnn3)ncc(F)c12` [G-22a], the EC50 is less than 500 nM.

For `COc1cnc(-n2cnc(C)n2)c2[nH]cc(C(=O)C(=O)N3CCN(c4cnnn4-c4ccccn4)CC3)c12` [G-22b], the EC50 was less than 500 nM.

For the compound `COc1cnc(-n2cnc(C)n2)c2[nH]cc(C(=O)C(=O)N3CCN(c4nn(C)nc4-c4ccccc4)CC3)c12` [G-23], the concentration for a half-maximal effect (EC50) was less than 500 nM.

For the compound `O=C(C(=O)N1CCN(c2nn[nH]c2-c2ccccn2)CC1)c1c[nH]c2c(-n3ccnn3)ncc(F)c12` [G-24a], the EC50 was less than 500 nM.

As to `COc1cnc(-n2cnc(C)n2)c2[nH]cc(C(=O)C(=O)N3CCN(c4nn[nH]c4-c4ccccn4)CC3)c12` [G-24b], the EC50 is less than 500 nM.

In the case of `O=C(C(=O)N1CCN(c2nn[nH]c2-c2nccs2)CC1)c1c[nH]c2c(-n3ccnn3)ncc(F)c12` [G-25a], the EC50 was less than 500 nM.

As to `COc1cnc(-n2cnc(C)n2)c2[nH]cc(C(=O)C(=O)N3CCN(c4nn[nH]c4-c4nccs4)CC3)c12` [G-25b], the concentration giving a half-maximal response (EC50) is less than 500 nM.

Regarding `CSc1nc(N2CCN(C(=O)C(=O)c3c[nH]c4c(-n5ccnn5)ncc(F)c34)CC2)n(-c2ccccc2)n1` [G-26a], the half-maximal effective concentration (EC50) is less than 500 nM.

For the compound `COc1cnc(-n2cnc(C)n2)c2[nH]cc(C(=O)C(=O)N3CCN(c4nc(SC)nn4-c4ccccc4)CC3)c12` [G-26b], the concentration giving a half-maximal response (EC50) was less than 500 nM.

Regarding `O=C(C(=O)N1CCN(c2ncnn2-c2ccccc2)CC1)c1c[nH]c2c(-n3ccnn3)ncc(F)c12` [G-27a], the EC50 is less than 500 nM.

Turning to `COc1cnc(-n2cnc(C)n2)c2[nH]cc(C(=O)C(=O)N3CCN(c4ncnn4-c4ccccc4)CC3)c12` [G-27b], the concentration for a half-maximal effect (EC50) was less than 500 nM.

For the compound `CS(=O)(=O)c1nc(N2CCN(C(=O)C(=O)c3c[nH]c4c(-n5ccnn5)ncc(F)c34)CC2)n(-c2ccccc2)n1` [G-28a], the half-maximal effective concentration (EC50) is less than 500 nM.

In the case of `COc1cnc(-n2cnc(C)n2)c2[nH]cc(C(=O)C(=O)N3CCN(c4nc(S(C)(=O)=O)nn4-c4ccccc4)CC3)c12` [G-28b], the EC50 is less than 500 nM.

For `COc1nc(N2CCN(C(=O)C(=O)c3c[nH]c4c(-n5ccnn5)ncc(F)c34)CC2)n(-c2ccccc2)n1` [G-29a], the concentration giving a half-maximal response (EC50) is less than 500 nM.

Regarding `COc1nc(N2CCN(C(=O)C(=O)c3c[nH]c4c(-n5cnc(C)n5)ncc(OC)c34)CC2)n(-c2ccccc2)n1` [G-29b], the EC50 is less than 500 nM.

For the compound `O=C(C(=O)N1CCN(c2cnnn2-c2ccccc2)CC1)c1c[nH]c2c(-n3ccnn3)ncc(F)c12` [G-30a], the 50% effective concentration (EC50) was less than 500 nM.

Regarding `COc1cnc(-n2cnc(C)n2)c2[nH]cc(C(=O)C(=O)N3CCN(c4cnnn4-c4ccccc4)CC3)c12` [G-30b], the EC50 was less than 500 nM.

For `COc1cnc(-n2cc(C)nn2)c2[nH]cc(C(=O)C(=O)N3CCN(c4nnnn4-c4ccccn4)CC3)c12` [G-31], the concentration for a half-maximal effect (EC50) was less than 500 nM.

For the compound `Cc1nc(N2CCN(C(=O)C(=O)c3c[nH]c4c(-n5ccnn5)ncc(F)c34)CC2)n(-c2ccccc2)n1` [G-32], the concentration giving a half-maximal response (EC50) is less than 500 nM.

On to `COc1cnc(-c2cncc(F)c2)c2[nH]cc(C(=O)C(=O)N3CCN(c4nnnn4-c4ccccn4)CC3)c12` [H-1], for which the EC50 is less than 500 nM.

In the case of `COc1cnc(-c2cccnc2F)c2[nH]cc(C(=O)C(=O)N3CCN(c4nnnn4-c4ccccn4)CC3)c12` [H-2], the concentration giving a half-maximal response (EC50) is less than 500 nM.

For `COc1cnc(-c2cccnc2)c2[nH]cc(C(=O)C(=O)N3CCN(c4nnnn4-c4ccccn4)CC3)c12` [H-3], the EC50 was less than 500 nM.

`COc1cnc(-c2cccnc2Cl)c2[nH]cc(C(=O)C(=O)N3CCN(c4nnnn4-c4ccccn4)CC3)c12` [H-4]: the EC50 is less than 500 nM.

For `COc1cnccc1-c1ncc(OC)c2c(C(=O)C(=O)N3CCN(c4nnnn4-c4ccccn4)CC3)c[nH]c12` [H-5], the concentration for a half-maximal effect (EC50) is less than 500 nM.

Turning to `COc1ccncc1-c1ncc(OC)c2c(C(=O)C(=O)N3CCN(c4nnnn4-c4ccccn4)CC3)c[nH]c12` [H-6], the half-maximal effective concentration (EC50) was less than 500 nM.

On to `COc1cnc(-c2cnccc2C)c2[nH]cc(C(=O)C(=O)N3CCN(c4nnnn4-c4ccccn4)CC3)c12` [H-7], for which the half-maximal effective concentration (EC50) was less than 500 nM.

As to `COc1cnc(-c2ccnc(F)c2)c2[nH]cc(C(=O)C(=O)N3CCN(c4nnnn4-c4ccccn4)CC3)c12` [H-8], the concentration giving a half-maximal response (EC50) is less than 500 nM.

Turning to `COc1cnc(-c2ccc(N)nc2)c2[nH]cc(C(=O)C(=O)N3CCN(c4nnnn4-c4ccccn4)CC3)c12` [H-9], the EC50 is less than 500 nM.

Turning to `COc1ccc(-c2ncc(OC)c3c(C(=O)C(=O)N4CCN(c5nnnn5-c5ccccn5)CC4)c[nH]c23)cn1` [H-10], the 50% effective concentration (EC50) is less than 500 nM.

With `COc1cnc(-c2ccc(C#N)nc2)c2[nH]cc(C(=O)C(=O)N3CCN(c4nnnn4-c4ccccn4)CC3)c12` [H-11], the EC50 is less than 500 nM.

Take `COc1cnc(-c2ccnc(C)c2)c2[nH]cc(C(=O)C(=O)N3CCN(c4nnnn4-c4ccccn4)CC3)c12` [H-12]: the 50% effective concentration (EC50) was less than 500 nM.

In the case of `COc1cnc(-c2ccc(F)nc2)c2[nH]cc(C(=O)C(=O)N3CCN(c4nnnn4-c4ccccn4)CC3)c12` [H-13], the EC50 is less than 500 nM.
